Experimental data from patent US20100093650A1, “Pharmaceutical Anit-Infective Composition for Inhalation” (LABORATORIES SMB S.A., priority 2006, published 2010).
Blank lines part the entries; values can stand above or below the compound they belong to.

Tests used:
[1] = system: 12 day old Pseudomonas aeruginosa biofilm; assay: MIC on 12 day old biofilm; type: cell-based
From the text: (§1) Biofilms of Pseudomonas aeruginosa—strain PY O1 were formed according to the methods described by Ceri et al, the calgary biofilm device: new technology for rapid determination of antibiotic susceptibilities of bacterial biofilms, Journal of clinical microbiology, pp. 1771-1776, 1999 and Abdi-Ali et al, bactericidal activity of various antibiotics against biofilm-producing Pseudomonas aeruginosa, International Journal of Antimicrobial Agents 27, 196-200, 2006.
(§2) PY O1: is a cystic Fibrosis clinical mucoid strain of Pseudomonas aeruginosa received from the Erasme Hospital, Brussels.
In a second experiment using the same modus operandi as above, we measured the MIC of Tobramycin on a 12 day old Pseudomonas aeruginosa biofilm. This situation is much closer to the situation observed in vivo in chronic respiratory diseases like Cystic Fibrosis.

[2] = system: 12 day biofilm of Pseudomonas aeruginosa; assay: Bacterial count (CFU/ml) of 12-day biofilm after 24 hours with the products; type: cell-based; conditions: for bacterial count in biofilm (CFU/ml × 10^7): 24 hours; for decrease of the number of CFU/ml of the 12-day biofilm versus the positive control: concentrations of Table 1 (tobramycin 4 μg/ml; clarithromycin 100, 200, 500 μg/ml; combinations)
From the text: as §1, §2
After having shown that the number of Pseudomonas aeruginosa within the biofilms was stable after 12 days, the products listed in Table 1 were added to the media for the duration of 24 hours. Thereafter the biofilm was rinsed three times with a 0.01 M phosphate buffer adjusted at pH 7.5 in order to remove all cells not bound to the biofilm. The microplate was then placed on ultrasonic bath at 35° C. for 5 minutes to allow the bacteria present in the biofilm to separate from such biofilm. A bacterial count was then performed (number of coloning forming unit CFU/ml). Each experience was done twice and the CFU counting was also repeated twice/experience.

[3] = In vitro lung deposition, Multistage Liquid Impinger (MLI); type: physicochemical; conditions: for lung concentration per capsule: estimated from lung deposition with about 100 ml epithelial liquid in the lung, composition of example 6
From the text: The amount of macrolide agent inhaled shall be high enough to affect, in some way, the biofilm. It has to be noted that as the effect of macrolide derivatives on the biofilm is mediated through a non-antibacterial mechanism. […] Nevertheless, it is a another object of the present invention to provide a composition containing high concentrations (or amounts) of each of the aminoglycoside derivative and of the macrolide derivative i.e. at least more than 10%, preferably more than 15%, and more preferably more than 20% of the dry powder composition. It is indeed particularly interesting to achieve high lung doses of those therapeutic agents with the minimum amounts of inhalations because it makes the administration easier and more importantly increase the patient's compliance. It also decreases the nominal dose of each active ingredient and thus the adverse effects linked to these actives. In the present invention, the dry powder inhaler also provides a high Fine Particle Dose (FPD) and Fine Particle […] (FPF) when tested in vitro on a Multistage Liquid Impinger (MLI, Eur. Pharm, 5th Edition, chapter 2.9.18). The FPD and FPF are the parameters that predict in vivo lung deposition.
The in vitro lung deposition test was performed using equipment and conditions as described in the European Pharmacopoeia (5th edition, chapter 2.9.18—apparatus C). This equipment consists of a Multistage Liquid Impinger (MLI) and was operated with an air flow of 100 L/min during a period of time of 2.4 seconds to simulate inhalation capabilities of patients. The quantification of the deposition of each drug on each stage of the MLI was performed by HPLC equipped with a a Corona detector.

[4] = system: planktonic Pseudomonas aeruginosa; assay: MIC on planktonic bacteria (NCCLS dilution method); type: cell-based
Protocol: as §2
The determination of the minimal inhibitory concentration (MIC) is performed according to the standard of NCCLS (NCCLS, Methods for dilution Antimicrobial Susceptibility Tests for bacteria that grow aerobically; approved standards, sixth edition, M7-A6, vol. 23 no.2, January 2003.

[5] = Particle size by laser diffraction; type: physicochemical; conditions: micronized, measured by laser diffraction
From the text: A dry powder composition for inhalation of tobramycin and clarithromycin was formulated using micronized tobramycin supplied by Teva Plantex (Israel). Clarithromycin was supplied by Teva Plantex (Israel) in a non-micronized form. Clarithromycin was then micronized using the micronizer MC-one® (JetpHarma, Switerland). […] The micronisation parameters were a pressure of 10 bars in the Venturi, a pressure of 8 bars in the ring and a feeding rate of 5 g/minute. The mean particle size of the micronized clarithromycin obtained (measured by laser diffraction) was 1.6 μm.

[6] = MLI1, example 6 capsule 10 mg/10 mg, MLI 100 L/min
[7] = MLI2, example 6 capsule 10 mg/10 mg, MLI 100 L/min
[8] = MLI3, example 6 capsule 10 mg/10 mg, MLI 100 L/min
[9] = Mean (n = 3), example 6 capsule 10 mg/10 mg, MLI 100 L/min
[10] = composition of example 6, MLI 100 L/min

activity (MIC) on 12 day old biofilm [1]: no longer active | Device deposition [3, 6]: 1.035 mg | FPD [3, 6]: 3.60 mg | FPF [3, 6]: 36% | Filter deposition [3, 6]: 0.664 mg | Stage 1 deposition [3, 6]: 1.760 mg | Stage 2 deposition [3, 6]: 0.614 mg | Stage 3 deposition [3, 6]: 1.512 mg | Stage 4 deposition [3, 6]: 1.598 mg | Throat deposition [3, 6]: 0.929 mg | Device deposition [3, 7]: 0.938 mg | FPD [3, 7]: 4.45 mg | FPF [3, 7]: 44.5% | Filter deposition [3, 7]: 0.838 mg | Stage 1 deposition [3, 7]: 1.837 mg | Stage 2 deposition [3, 7]: 0.726 mg | Stage 3 deposition [3, 7]: 1.818 mg | Stage 4 deposition [3, 7]: 1.965 mg | Throat deposition [3, 7]: 0.859 mg | Device deposition [3, 8]: 1.272 mg | FPD [3, 8]: 4.72 mg | FPF [3, 8]: 47.2% | Filter deposition [3, 8]: 0.778 mg | Stage 1 deposition [3, 8]: 1.546 mg | Stage 2 deposition [3, 8]: 0.606 mg | Stage 3 deposition [3, 8]: 1.895 mg | Stage 4 deposition [3, 8]: 2.202 mg | Throat deposition [3, 8]: 0.771 mg | Device deposition [3, 9]: 1.082 mg | FPD [3, 9]: 4.26 mg | FPF [3, 9]: 42.5% | Filter deposition [3, 9]: 0.760 mg | Stage 1 deposition [3, 9]: 1.714 mg | Stage 2 deposition [3, 9]: 0.648 mg | Stage 3 deposition [3, 9]: 1.742 mg | Stage 4 deposition [3, 9]: 1.922 mg | Throat deposition [3, 9]: 0.853 mg | FPD/capsule [3, 10]: 4.26 mg | FPF [3, 10]: 42.5% | lung concentration per capsule [3]: 42.6 µg/mL
SMILES: NC[C@H]1O[C@H](O[C@H]2[C@H](O)[C@@H](O[C@H]3O[C@H](CO)[C@@H](O)[C@H](N)[C@H]3O)[C@H](N)C[C@@H]2N)[C@H](N)C[C@@H]1O [Tobramycin]
bacterial count in biofilm (CFU/ml × 10^7) ([2]; T 4 μg/ml, 12 day biofilm): 25 CFU × 10^7 | decrease of the number of CFU/ml of the 12-day biofilm versus the positive control [2]: neither tobramycin 4 μg/ml nor clarithromycin at 100, 200 and 500 μg/ml alone are able to decrease the number of CFU/m1 | number of CFU/ml ([2]; tobramycin alone at 4 μg/ml, 12 day biofilm): around 2.5×10^8 CFU/ml

sensitivity of the bacterium (MIC could not be determined) [4]: not sensitive | Device deposition [3, 6]: 1.155 mg | FPD [3, 6]: 3.14 mg | FPF [3, 6]: 31.4% | Filter deposition [3, 6]: 0.478 mg | Stage 1 deposition [3, 6]: 1.338 mg | Stage 2 deposition [3, 6]: 0.664 mg | Stage 3 deposition [3, 6]: 1.715 mg | Stage 4 deposition [3, 6]: 1.162 mg | Throat deposition [3, 6]: 1.025 mg | Device deposition [3, 7]: 1.048 mg | FPD [3, 7]: 3.76 mg | FPF [3, 7]: 37.6% | Filter deposition [3, 7]: 0.598 mg | Stage 1 deposition [3, 7]: 1.566 mg | Stage 2 deposition [3, 7]: 0.845 mg | Stage 3 deposition [3, 7]: 1.891 mg | Stage 4 deposition [3, 7]: 1.482 mg | Throat deposition [3, 7]: 1.134 mg | Device deposition [3, 8]: 1.433 mg | FPD [3, 8]: 3.98 mg | FPF [3, 8]: 39.9% | Filter deposition [3, 8]: 0.574 mg | Stage 1 deposition [3, 8]: 1.352 mg | Stage 2 deposition [3, 8]: 0.680 mg | Stage 3 deposition [3, 8]: 2.078 mg | Stage 4 deposition [3, 8]: 1.533 mg | Throat deposition [3, 8]: 1.223 mg | Device deposition [3, 9]: 1.212 mg | FPD [3, 9]: 3.63 mg | FPF [3, 9]: 36.3% | Filter deposition [3, 9]: 0.550 mg | Stage 1 deposition [3, 9]: 1.419 mg | Stage 2 deposition [3, 9]: 0.729 mg | Stage 3 deposition [3, 9]: 1.895 mg | Stage 4 deposition [3, 9]: 1.392 mg | Throat deposition [3, 9]: 1.127 mg | FPD/capsule [3, 10]: 3.63 mg | FPF [3, 10]: 36.3% | lung concentration per capsule [3]: 36.3 µg/mL | mean particle size [5]: 1.6 μm
SMILES: CC[C@H]1OC(=O)[C@H](C)[C@@H](O[C@H]2C[C@@](C)(OC)[C@@H](O)[C@H](C)O2)[C@H](C)[C@@H](O[C@@H]2O[C@H](C)C[C@H](N(C)C)[C@H]2O)[C@](C)(OC)C[C@@H](C)C(=O)[C@H](C)[C@@H](O)[C@]1(C)O [Clarithromycin]
bacterial count in biofilm (CFU/ml × 10^7) ([2]; C 100 μg/ml, 12 day biofilm): 14 CFU × 10^7 | bacterial count in biofilm (CFU/ml × 10^7) ([2]; C 200 μg/ml, 12 day biofilm): 10 CFU × 10^7 | bacterial count in biofilm (CFU/ml × 10^7) ([2]; C 500 μg/ml, 12 day biofilm): 7 CFU × 10^7 | decrease of the number of CFU/ml of the 12-day biofilm versus the positive control [2]: neither tobramycin 4 μg/ml nor clarithromycin at 100, 200 and 500 μg/ml alone are able to decrease the number of CFU/m1
